ChEMBL document CHEMBL2150920, “Discovery of a potent and selective small molecule hGPR91 antagonist” (Bioorg Med Chem Lett, 2011)

Experiments:
Liver microsomes = assay: Intrinsic clearance in rat liver microsomes preincubated for 5 mins before addition of NADPH measured after 30 mins by LC/MS/MS analysis; type: ADME, Microsome; conditions: 0.5 h
Succinate receptor 1 = molecular target: T1, Succinate receptor 1 (Homo sapiens, UniProt Q9BXA5); assay: Antagonist activity at human GPR91 receptor expressed in CHO-K1 cells co-expressing Galpha and Gqi5 G-protein assessed as inhibition of succinate-induced increase in intracellular calcium level by FLIPR assay; type: functional, cell-based
T1 sequence (Q9BXA5 whole entry): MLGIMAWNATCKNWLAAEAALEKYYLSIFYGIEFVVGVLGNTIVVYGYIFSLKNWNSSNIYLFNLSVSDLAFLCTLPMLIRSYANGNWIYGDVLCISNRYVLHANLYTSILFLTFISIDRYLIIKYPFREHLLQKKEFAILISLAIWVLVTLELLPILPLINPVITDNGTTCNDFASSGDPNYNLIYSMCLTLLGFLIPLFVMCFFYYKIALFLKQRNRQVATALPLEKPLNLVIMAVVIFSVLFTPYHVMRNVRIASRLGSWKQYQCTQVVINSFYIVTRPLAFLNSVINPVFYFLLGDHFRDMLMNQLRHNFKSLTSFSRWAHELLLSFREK

| SMILES | Intrinsic clearance (Liver microsomes) [nmol/min/mg] | IC50 (Succinate receptor 1) [nM] |
| --- | --- | --- |
| O=C(CCCc1ccc2cccnc2n1)NCc1ccc(-c2cccc(OC(F)(F)F)c2)cc1 | 0.2 | 500 |
| O=C(CCCc1ccc2cccnc2n1)NCc1ccc(-c2ccccc2)cc1 | 0.17 | 1000 |
| Fc1ccc(-c2nnc(CCCCc3ccc4cccnc4n3)o2)cc1C(F)(F)F | 0.16 | 2000 |
| C[C@H](NC(=O)C(O)(c1ccc(-c2ccc3cccnc3n2)cc1)C(F)(F)F)c1ccc(-c2ccc(F)c(C(F)(F)F)c2)cc1 (some centres undefined) | 0.17 | 16 |
| O=C(CCCc1ccc2cccnc2n1)NCc1csc(-c2cccc(Cl)c2)n1 | 0.4 | 700 |
| C[C@H](NC(=O)C(O)c1ccc(-c2ccc3cccnc3n2)cc1)c1ccc(-c2ccc(F)c(C(F)(F)F)c2)cc1 (some centres undefined) | 0.2 | 18 |
| O=C(CCCc1ccc2cccnc2n1)NCc1cnc(-c2ccc(F)c(C(F)(F)F)c2)nc1 | 0.2 | 49 |
| O=C(CCCc1ccc2cccnc2n1)NCc1ccc(-c2cccc(C(F)(F)F)c2)cc1F | 0.34 | 41 |
| Fc1ccc(-c2nnc(CCCCc3ccc4cccnc4n3)o2)cc1OC(F)(F)F |  | 4000 |
| Fc1ccc(-c2ccc(-c3nnc(CCCc4ccc5cccnc5n4)o3)cc2)cc1Cl | 0.2 | 100 |
| O=C(Cc1ccc(-c2ccc3cccnc3n2)cc1)NCc1ccc(-c2ccc(F)c(C(F)(F)F)c2)cc1 | 0.28 | 75 |
| O=C(CCCc1ccc2cccnc2n1)NCc1cc(-c2cccc(Cl)c2)no1 | 0.09 | 65 |
| O=C(CCCc1ccc2cccnc2n1)NCc1nc(-c2cccc(Cl)c2)cs1 | 0.18 | 300 |
| Cc1cc(-c2ccc(CNC(=O)CCCc3ccc4cccnc4n3)cc2)ccc1Cl |  | 300 |
| O=C(Cc1ccc(-c2ccc3cccnc3n2)cc1)NCc1ccc(-c2ccc(F)c(Cl)c2)cc1 | 0.84 | 31 |
| CC(NC(=O)CCCc1ccc2cccnc2n1)c1ccc(-c2cccc(C(F)(F)F)c2)cc1 (centres undefined) | 0.25 | 16 |
| O=C(CCCc1ccc2cccnc2n1)NCc1ccc(-c2ccc(F)c(C(F)(F)F)c2)cc1 | 0.1 | 22 |
| C[C@H](NC(=O)C(C)(C)c1ccc(-c2ccc3cccnc3n2)cc1)c1ccc(-c2ccc(F)c(C(F)(F)F)c2)cc1 | 0.25 | 14 |
| O=C(CCCc1ccc2cccnc2n1)NCc1cnn(-c2ccc(F)c(C(F)(F)F)c2)c1 | 0.18 | 210 |
| FC(F)(F)c1ccc(-c2nnc(CCCCc3ccc4cccnc4n3)o2)cc1 | 0.07 | 3000 |
| O=C(CCCc1ccc2cccnc2n1)NCc1ccc(-c2ccc(F)c(C(F)(F)F)c2)nn1 |  | 720 |
| FC(F)(F)Oc1ccc(-c2nnc(CCCCc3ccc4cccnc4n3)o2)cc1 |  | 3000 |
| FC(F)(F)c1cccc(-c2ccc(-c3nnc(CCCc4ccc5cccnc5n4)o3)cc2)c1 | 0.3 | 200 |
| O=C(NCc1ccc(-c2ccc(F)c(C(F)(F)F)c2)cc1)C(O)(c1ccc(-c2ccc3cccnc3n2)cc1)C(F)(F)F (centres undefined) | 0.2 | 34 |
| O=C(CCCc1ccc2cccnc2n1)NCc1nnc(-c2ccc(F)c(C(F)(F)F)c2)s1 |  | 270 |
| Clc1cccc(-c2ccc(-c3nnc(CCCc4ccc5cccnc5n4)s3)cc2)c1 |  | 3000 |
| O=C(CCCc1ccc2cccnc2n1)NCc1ncc(-c2ccc(F)c(C(F)(F)F)c2)cn1 |  | 200 |
| Clc1ccc(-c2nnc(CCCCc3ccc4cccnc4n3)o2)cc1 |  | > 3000 |
| O=C(CCCc1ccc2cccnc2n1)NCc1nnc(-c2ccc(F)c(C(F)(F)F)c2)o1 |  | 1000 |
